Legend:
Experiment in all cases: In vitro antibacterial evaluation: minimum inhibitory concentration (MIC), broth dilution method
Assay type in all cases: cell-based
Details in all cases: broth dilution, 18 hours at 35° C.
Enterococcus sp. = tested on: Enterococcus sp.
Summary of the method: (§1)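 First, organisms are seeded at 5×10^5 CFU/mL into Muller-Hinton II […]. Next, antibiotic is applied across 64-0.06 μg/mL by broth dilution (NCCLS M7-A2). Finally, the lowest inhibitory concentration is recorded as MIC.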

Staphylococcus sp. = tested on: Staphylococcus sp.
Summary of the method: as §1

Streptococcus sp. = tested on: Streptococcus sp.
Summary of the method: as §1

Escherichia coli = tested on: Escherichia coli

CC(c1ccccc1)C1NC(=O)CNC(=O)C(CO)NC(=O)C(C(O)C2CNC(=N)N2C2OC(CO)C(O)C(O)C2O)NC(=O)C(C(O)C2CNC(=N)N2)NC(=O)C(Cc2ccc3oc(SCc4ccc(-c5ccccc5)cc4)nc3c2)NC1=O (centres unmarked) [Example 47]
4 µg/mL: MIC Enterococcus faecalis (GC 2242) (Enterococcus sp.; Enterococcus faecalis (GC 2242)) | MIC Enterococcus faecalis (GC 4553) (Enterococcus sp.; Enterococcus faecalis (GC 4553)) | MIC Enterococcus faecium (GC 2243) (Enterococcus sp.; Enterococcus faecium (GC 2243)) | MIC Enterococcus faecium (GC 4557) (Enterococcus sp.; Enterococcus faecium (GC 4557)) | MIC Enterococcus faecalis (GC 2242) (Enterococcus sp.) | MIC Enterococcus faecalis (GC 4553) (Enterococcus sp.) | MIC Enterococcus faecium (GC 2243) (Enterococcus sp.) | MIC Enterococcus faecium (GC 4557) (Enterococcus sp.) | MIC Streptococcus pneumoniae (ATCC 6301) (Streptococcus sp.; Streptococcus pneumoniae (ATCC 6301)) | MIC Streptococcus pneumoniae (ATCC 6301) (Streptococcus sp.)
>64 µg/mL: MIC Escherichia coli (ATCC 25922) (Escherichia coli) | MIC Escherichia coli (GC 4559) (Escherichia coli)
64 µg/mL: MIC Enterococcus faecalis (GC 4554) (Enterococcus sp.; Enterococcus faecalis (GC 4554)) | MIC Enterococcus faecalis (GC 4554) (Enterococcus sp.)
1 µg/mL: MIC Streptococcus pyogenes (GC 4563) (Streptococcus sp.; Streptococcus pyogenes (GC 4563)) | MIC Streptococcus pyogenes (GC 4563) (Streptococcus sp.)
16 µg/mL: MIC Enterococcus faecalis (GC 4552) (Enterococcus sp.; Enterococcus faecalis (GC 4552)) | MIC Enterococcus faecalis (GC 4552) (Enterococcus sp.) | MIC Coagulase Negative Staphylococcus (GC 4547) (Staphylococcus sp.)
0.5 µg/mL: MIC Coagulase Negative Staphylococcus (GC 4549) (Staphylococcus sp.)
32 µg/mL: MIC Enterococcus faecalis (GC 2691) (Enterococcus sp.; Enterococcus faecalis (GC 2691)) | MIC Enterococcus faecalis (GC 3059) (Enterococcus sp.; Enterococcus faecalis (GC 3059)) | MIC Enterococcus faecalis (GC 6189) (Enterococcus sp.; Enterococcus faecalis (GC 6189)) | MIC Enterococcus faecalis (GC 2691) (Enterococcus sp.) | MIC Enterococcus faecalis (GC 3059) (Enterococcus sp.) | MIC Enterococcus faecalis (GC 6189) (Enterococcus sp.) | MIC Escherichia coli (GC 4560) (Escherichia coli)
2 µg/mL: MIC Enterococcus avium (GC 4558) (Enterococcus sp.; Enterococcus avium (GC 4558)) | MIC Enterococcus avium (GC 4558) (Enterococcus sp.) | MIC Coagulase Negative Staphylococcus (GC 4548) (Staphylococcus sp.) | MIC Streptococcus agalactiae (GC 4564) (Streptococcus sp.; Streptococcus agalactiae (GC 4564)) | MIC Streptococcus pneumoniae (GC 1894) (Streptococcus sp.; Streptococcus pneumoniae (GC 1894)) | MIC Streptococcus agalactiae (GC 4564) (Streptococcus sp.) | MIC Streptococcus pneumoniae (GC 1894) (Streptococcus sp.)
8 µg/mL: MIC Enterococcus faecalis (ATCC 29212) (Enterococcus sp.; Enterococcus faecalis (ATCC 29212)) | MIC Enterococcus faecium (GC 4556) (Enterococcus sp.; Enterococcus faecium (GC 4556)) | MIC Enterococcus faecalis (ATCC 29212) (Enterococcus sp.) | MIC Enterococcus faecium (GC 4556) (Enterococcus sp.) | MIC Coagulase Negative Staphylococcus (GC 4551) (Staphylococcus sp.) | MIC Staphylococcus aureus SMITH (GC 4543) (Staphylococcus sp.) | MIC Staphylococcus haemolyticus (GC 4546) (Staphylococcus sp.) | MIC Staphylococcus aureus-SMITH (GC 4543) (Staphylococcus sp.; strain SMITH GC 4543) | MIC Streptococcus pneumoniae (GC 4565) (Streptococcus sp.; Streptococcus pneumoniae (GC 4565)) | MIC Streptococcus pneumoniae (GC 4565) (Streptococcus sp.)
